Numbers after ± are expanded uncertainties.
Assay: compressibility factor (dimensionless); xn = mol fraction of the nth substance listed
Details: Liquid, Burnett expansion method

[N-]=[N+]=O [nitrous oxide] + FC(F)F
Details	compressibility factor
303.25 K, 141.8 kPa, x1 = 0.6613	0.9915 ± 0.0001
303.25 K, 151.7 kPa, x1 = 0.3152	0.9906 ± 0.0001
303.25 K, 160.7 kPa, x1 = 0.2248	0.991 ± 0.0002
303.25 K, 174.2 kPa, x1 = 0.5419	0.9896 ± 0.0001
303.25 K, 182.2 kPa, x1 = 0.4308	0.9882 ± 0.0001
303.25 K, 209.6 kPa, x1 = 0.7758	0.9883 ± 0.0001
303.25 K, 211.4 kPa, x1 = 0.6613	0.9879 ± 0.0001
303.25 K, 225.8 kPa, x1 = 0.3152	0.9858 ± 0.0001
303.25 K, 239.5 kPa, x1 = 0.2248	0.9872 ± 0.0002
303.25 K, 259.3 kPa, x1 = 0.5419	0.9847 ± 0.0001
303.25 K, 271.2 kPa, x1 = 0.4308	0.9832 ± 0.0001
303.25 K, 311.9 kPa, x1 = 0.7758	0.983 ± 0.0001
303.25 K, 314.4 kPa, x1 = 0.6613	0.9824 ± 0.0001
303.25 K, 335.5 kPa, x1 = 0.3152	0.9789 ± 0.0001
303.25 K, 356.1 kPa, x1 = 0.2248	0.9814 ± 0.0002
303.25 K, 385.1 kPa, x1 = 0.5419	0.9775 ± 0.0001
303.25 K, 402.6 kPa, x1 = 0.4308	0.9756 ± 0.0001
303.25 K, 462.7 kPa, x1 = 0.7758	0.9749 ± 0.0001
303.25 K, 466.4 kPa, x1 = 0.6613	0.974 ± 0.0001
303.25 K, 496.7 kPa, x1 = 0.3152	0.9688 ± 0.0001
303.25 K, 528.1 kPa, x1 = 0.2248	0.9726 ± 0.0002
303.25 K, 569.8 kPa, x1 = 0.5419	0.9668 ± 0.0001
303.25 K, 595 kPa, x1 = 0.4308	0.9638 ± 0.0001
303.25 K, 683.7 kPa, x1 = 0.7758	0.9628 ± 0.0001
303.25 K, 688.8 kPa, x1 = 0.6613	0.9615 ± 0.0001
303.25 K, 731.3 kPa, x1 = 0.3152	0.9534 ± 0.0001
303.25 K, 779.4 kPa, x1 = 0.2248	0.9596 ± 0.0002
303.25 K, 838.3 kPa, x1 = 0.5419	0.9507 ± 0.0001
303.25 K, 874.1 kPa, x1 = 0.4308	0.9464 ± 0.0001
303.25 K, 1003.6 kPa, x1 = 0.7758	0.9446 ± 0.0001
303.25 K, 1010.4 kPa, x1 = 0.6613	0.9427 ± 0.0001
303.25 K, 1068.3 kPa, x1 = 0.3152	0.9309 ± 0.0001
303.25 K, 1142.3 kPa, x1 = 0.2248	0.94 ± 0.0002
303.25 K, 1222.8 kPa, x1 = 0.5419	0.9269 ± 0.0001
303.25 K, 1272.3 kPa, x1 = 0.4308	0.9208 ± 0.0001
303.25 K, 1459.1 kPa, x1 = 0.7758	0.918 ± 0.0001
303.25 K, 1467.5 kPa, x1 = 0.6613	0.9152 ± 0.0001
303.25 K, 1541.6 kPa, x1 = 0.3152	0.8979 ± 0.0001
303.25 K, 1657.1 kPa, x1 = 0.2248	0.9115 ± 0.0002
303.25 K, 1760.9 kPa, x1 = 0.5419	0.8922 ± 0.0001
303.25 K, 1825.8 kPa, x1 = 0.4308	0.8832 ± 0.0001
303.25 K, 2090.5 kPa, x1 = 0.7758	0.8791 ± 0.0001
303.25 K, 2099 kPa, x1 = 0.6613	0.8749 ± 0.0001
303.25 K, 2185.1 kPa, x1 = 0.3152	0.8507 ± 0.0001
303.25 K, 2366.6 kPa, x1 = 0.2248	0.8701 ± 0.0001
303.25 K, 2486.5 kPa, x1 = 0.5419	0.8421 ± 0.0001
303.25 K, 2565.1 kPa, x1 = 0.4308	0.8294 ± 0.0001
303.25 K, 2929 kPa, x1 = 0.7758	0.8233 ± 0.0001
303.25 K, 2933.8 kPa, x1 = 0.6613	0.8174 ± 0.0001
303.25 K, 3012.1 kPa, x1 = 0.3152	0.7838 ± 0.0001
303.25 K, 3303.6 kPa, x1 = 0.2248	0.8119 ± 0.0001
303.25 K, 3408.6 kPa, x1 = 0.5419	0.7716 ± 0.0001
303.25 K, 3489.6 kPa, x1 = 0.4308	0.7542 ± 0.0001
303.25 K, 3965.1 kPa, x1 = 0.7758	0.7449 ± 0.0001
323.43 K, 176.4 kPa, x1 = 0.5105	0.9908 ± 0.0001
323.43 K, 262.8 kPa, x1 = 0.5105	0.987 ± 0.0001
323.43 K, 391 kPa, x1 = 0.5105	0.9814 ± 0.0001
323.43 K, 579.9 kPa, x1 = 0.5105	0.9729 ± 0.0001
323.43 K, 856.1 kPa, x1 = 0.5105	0.96 ± 0.0001
323.43 K, 1255 kPa, x1 = 0.5105	0.9406 ± 0.0001
323.43 K, 1820.9 kPa, x1 = 0.5105	0.9123 ± 0.0001
323.43 K, 2601.4 kPa, x1 = 0.5105	0.8711 ± 0.0001
323.43 K, 3632.8 kPa, x1 = 0.5105	0.8131 ± 0.0001
323.44 K, 159.9 kPa, x1 = 0.6428	0.9917 ± 0.0001
323.44 K, 170.7 kPa, x1 = 0.7792	0.992 ± 0.0001
323.44 K, 174 kPa, x1 = 0.358	0.9909 ± 0.0001
323.44 K, 238.4 kPa, x1 = 0.6428	0.9886 ± 0.0001
323.44 K, 254.5 kPa, x1 = 0.7792	0.9888 ± 0.0001
323.44 K, 259.3 kPa, x1 = 0.358	0.9869 ± 0.0001
323.44 K, 354.9 kPa, x1 = 0.6428	0.9837 ± 0.0001
323.44 K, 378.9 kPa, x1 = 0.7792	0.9837 ± 0.0001
323.44 K, 385.6 kPa, x1 = 0.358	0.9809 ± 0.0001
323.44 K, 527.1 kPa, x1 = 0.6428	0.9764 ± 0.0001
323.44 K, 562.3 kPa, x1 = 0.7792	0.9759 ± 0.0001
323.44 K, 571.6 kPa, x1 = 0.358	0.972 ± 0.0001
323.44 K, 779.5 kPa, x1 = 0.6428	0.9653 ± 0.0001
323.44 K, 831.2 kPa, x1 = 0.7792	0.9642 ± 0.0001
323.44 K, 843.2 kPa, x1 = 0.358	0.9583 ± 0.0001
323.44 K, 1145.9 kPa, x1 = 0.6428	0.9485 ± 0.0001
323.44 K, 1221 kPa, x1 = 0.7792	0.9467 ± 0.0001
323.44 K, 1235.2 kPa, x1 = 0.358	0.9384 ± 0.0001
323.44 K, 1669.1 kPa, x1 = 0.6428	0.9234 ± 0.0001
323.44 K, 1777.2 kPa, x1 = 0.7792	0.921 ± 0.0001
323.44 K, 1790.3 kPa, x1 = 0.358	0.9091 ± 0.0001
323.44 K, 2399.2 kPa, x1 = 0.6428	0.8872 ± 0.0001
323.44 K, 2551 kPa, x1 = 0.7792	0.8837 ± 0.0001
323.44 K, 2553.4 kPa, x1 = 0.358	0.8666 ± 0.0001
323.44 K, 3379.9 kPa, x1 = 0.6428	0.8354 ± 0.0001
323.44 K, 3557 kPa, x1 = 0.358	0.8069 ± 0.0001
323.44 K, 3585.4 kPa, x1 = 0.7792	0.8302 ± 0.0001
343.87 K, 201 kPa, x1 = 0.7837	0.9917 ± 0.0001
343.87 K, 299.8 kPa, x1 = 0.7837	0.9888 ± 0.0001
343.87 K, 446.5 kPa, x1 = 0.7837	0.9842 ± 0.0001
343.87 K, 663 kPa, x1 = 0.7837	0.9769 ± 0.0001
343.87 K, 980.8 kPa, x1 = 0.7837	0.966 ± 0.0001
343.87 K, 1442.6 kPa, x1 = 0.7837	0.9497 ± 0.0001
343.87 K, 2103.1 kPa, x1 = 0.7837	0.9254 ± 0.0001
343.87 K, 3026.4 kPa, x1 = 0.7837	0.8901 ± 0.0001
343.87 K, 4273 kPa, x1 = 0.7837	0.8401 ± 0.0001
343.95 K, 79.8 kPa, x1 = 0.6698	0.9965 ± 0.0001
343.95 K, 90.5 kPa, x1 = 0.2403	0.991 ± 0.0002
343.95 K, 92.3 kPa, x1 = 0.4174	0.9925 ± 0.0001
343.95 K, 119.5 kPa, x1 = 0.6698	0.9953 ± 0.0001
343.95 K, 128.4 kPa, x1 = 0.536	0.9933 ± 0.0001
343.95 K, 135.6 kPa, x1 = 0.2403	0.991 ± 0.0002
343.95 K, 138.2 kPa, x1 = 0.4174	0.9917 ± 0.0001
343.95 K, 178.9 kPa, x1 = 0.6698	0.9945 ± 0.0001
343.95 K, 192 kPa, x1 = 0.536	0.9915 ± 0.0001
343.95 K, 202.9 kPa, x1 = 0.2403	0.9897 ± 0.0002
343.95 K, 206.8 kPa, x1 = 0.4174	0.9901 ± 0.0001
343.95 K, 266.9 kPa, x1 = 0.6698	0.9901 ± 0.0001
343.95 K, 287 kPa, x1 = 0.536	0.9886 ± 0.0001
343.95 K, 303.2 kPa, x1 = 0.2403	0.9866 ± 0.0002
343.95 K, 308.9 kPa, x1 = 0.4174	0.9871 ± 0.0001
343.95 K, 398.2 kPa, x1 = 0.6698	0.9857 ± 0.0001
343.95 K, 428 kPa, x1 = 0.536	0.9839 ± 0.0001
343.95 K, 451.8 kPa, x1 = 0.2403	0.9812 ± 0.0002
343.95 K, 460.6 kPa, x1 = 0.4174	0.9821 ± 0.0001
343.95 K, 592.7 kPa, x1 = 0.6698	0.9789 ± 0.0001
343.95 K, 636.6 kPa, x1 = 0.536	0.9767 ± 0.0001
343.95 K, 671.3 kPa, x1 = 0.2403	0.9728 ± 0.0002
343.95 K, 684.7 kPa, x1 = 0.4174	0.9741 ± 0.0001
343.95 K, 879 kPa, x1 = 0.6698	0.9688 ± 0.0001
343.95 K, 943.2 kPa, x1 = 0.536	0.9656 ± 0.0001
343.95 K, 992.7 kPa, x1 = 0.2403	0.9599 ± 0.0002
343.95 K, 1013 kPa, x1 = 0.4174	0.9617 ± 0.0001
343.95 K, 1296.6 kPa, x1 = 0.6698	0.9537 ± 0.0001
343.95 K, 1389 kPa, x1 = 0.536	0.9489 ± 0.0001
343.95 K, 1457.5 kPa, x1 = 0.2403	0.9405 ± 0.0002
343.95 K, 1488.7 kPa, x1 = 0.4174	0.9431 ± 0.0001
343.95 K, 1897.6 kPa, x1 = 0.6698	0.9313 ± 0.0001
343.95 K, 2027.4 kPa, x1 = 0.536	0.9241 ± 0.0001
343.95 K, 2117.9 kPa, x1 = 0.2403	0.9119 ± 0.0002
343.95 K, 2166.3 kPa, x1 = 0.4174	0.9157 ± 0.0001
343.95 K, 2743.8 kPa, x1 = 0.6698	0.8986 ± 0.0001
343.95 K, 2920 kPa, x1 = 0.536	0.8882 ± 0.0001
343.95 K, 3030.8 kPa, x1 = 0.2403	0.8708 ± 0.0001
343.95 K, 3105.8 kPa, x1 = 0.4174	0.8761 ± 0.0001
343.95 K, 3898.2 kPa, x1 = 0.6698	0.8519 ± 0.0001
343.95 K, 4125.5 kPa, x1 = 0.536	0.8374 ± 0.0001
343.95 K, 4242.9 kPa, x1 = 0.2403	0.8135 ± 0.0001
343.95 K, 4359.1 kPa, x1 = 0.4174	0.8205 ± 0.0001
